Experimental data as given in patent publication US12679878B2, “CRF2 receptor agonists and their use in therapy” (SANOFI, priority 2020, dated 2026).
Starred links: 1 amine or outer side, 2 acyl side, 3 side chain; linkers in the order of their positions; H or OH if unused. Non-standard residues stand in square brackets, D forms with d. Residues, ends and D or L forms follow the SMILES beside them. Groups on a side chain read outwards from the residue. *: point of attachment. C18 diacid = O=C(O)CCCCCCCCCCCCCCCCC(=O)*; γGlu = O=C(O)[C@H](CCC(=O)[*:2])N[*:1]; Palmitoyl = CCCCCCCCCCCCCCCC(=O)*; AEEA = NCCOCCOCC(=O)O; Aib = CC(C)(N)C(=O)O

Columns and labels:
human CRF2α receptor = molecular target: T1, human CRF2α receptor (Homo sapiens, UniProt Q13324); assay: cAMP agonism at human CRF2 α receptor in TeloHEAC cells (Example 7); type: cell-based; conditions: cAMP HTRF, TeloHEAC cells stably expressing human CRF2 α, 0% HSA; read-out: EC50 [nM], 0% HSA
T1 construct: expressed in transfected cells; host or cells: TeloHEAC
T1 sequence (Q13324 1-411): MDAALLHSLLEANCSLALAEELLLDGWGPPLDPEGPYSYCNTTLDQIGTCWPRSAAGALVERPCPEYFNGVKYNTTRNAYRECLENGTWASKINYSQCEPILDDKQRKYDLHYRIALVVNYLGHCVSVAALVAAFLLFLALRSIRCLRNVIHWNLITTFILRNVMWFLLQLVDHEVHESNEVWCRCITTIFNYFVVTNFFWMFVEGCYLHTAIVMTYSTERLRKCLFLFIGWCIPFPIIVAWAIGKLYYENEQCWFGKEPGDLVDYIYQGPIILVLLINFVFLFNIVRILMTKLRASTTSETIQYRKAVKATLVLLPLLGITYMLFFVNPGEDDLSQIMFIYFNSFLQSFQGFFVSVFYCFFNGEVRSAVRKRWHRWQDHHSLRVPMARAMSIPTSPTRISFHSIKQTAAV
Procedure, shortened: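 Steps: thaw and wash cells; suspend in 1×HBSS, 20 mM HEPES, 0 or 0.1% HSA, 2 mM IBMX; add compound, 30 min RT; lyse with HTRF reagents, 1 h; read 665/620 nm. EC50 calculated, E% versus 1000 nM UCN2.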

CRF1R receptor = molecular target: T2, CRF1R receptor (Homo sapiens, UniProt P34998); assay: cAMP activity at anti-target CRF1R, CHO-K1 cell line clone 2 (Example 19.10); type: cell-based; conditions: CRF1R CHO-K1 clone 2; for EC50: 0% HSA, read-out: EC50 [nM] 0% HSA; for Emax: 100% = Sauvagine at 100 nM
T2 construct: host or cells: CHO-K1 clone 2
T2 sequence (P34998 24-415): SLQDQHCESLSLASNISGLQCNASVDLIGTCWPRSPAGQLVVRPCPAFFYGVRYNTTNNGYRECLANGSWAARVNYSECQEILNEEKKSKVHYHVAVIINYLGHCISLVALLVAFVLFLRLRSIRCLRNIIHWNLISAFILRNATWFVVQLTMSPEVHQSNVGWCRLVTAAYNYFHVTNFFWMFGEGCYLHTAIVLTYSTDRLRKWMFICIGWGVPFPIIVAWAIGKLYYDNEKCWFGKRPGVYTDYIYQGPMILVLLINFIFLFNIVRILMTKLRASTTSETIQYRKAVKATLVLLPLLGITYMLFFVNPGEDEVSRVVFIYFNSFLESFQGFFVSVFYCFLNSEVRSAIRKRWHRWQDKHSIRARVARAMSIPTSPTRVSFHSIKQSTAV
Description: The CRF1R-overexpression CHO-K1 cell line clone 2 was purchased from PerkinElmer.
Cells were grown in a 10 cm dish at 37° C./5% CO2 in medium (F12 (Hams)/10% FBS/400 μg/ml G418) to near confluence. At that stage, cells were harvested, resuspended to 10 million/mL in culture medium without G418 and with 10% DMSO. 1 mL vial aliquots were slowly frozen to -80° C. in isopropanol and then transferred in liquid nitrogen for storage. These vials were used to run the experiment following the procedure reported 10 in the previous paragraph, except for the compound used in the control well to define the 100% activation (Sauvagine at 100 nM)

Structure (SMILES)	EC50 (human CRF2α receptor)	EC50 (CRF1R receptor)	Emax (CRF1R receptor)
CCCCCCCCCCCCCCCC(=O)N[C@@H](CCC(=O)NCCCC[C@H](NC(=O)[C@H](CC(C)C)NC(=O)[C@H](CCCCN)NC(=O)[C@@H](NC(=O)[C@@H]1CCCN1C(=O)[C@H](NC(=O)[C@H](CC(=O)O)NC(=O)[C@H](CC(C)C)NC(=O)[C@H](CO)NC(=O)[C@H](CC(C)C)NC(=O)[C@@H](NC(=O)[C@@H](N)[C@@H](C)CC)C(C)C)C(C)C)[C@@H](C)O)C(=O)N[C@@H](CCCCN)C(=O)N[C@@H](CCCCN)C(=O)N[C@@H](CC(C)C)C(=O)N[C@@H](CC(C)C)C(=O)N[C@@H](CCCCN)C(=O)N[C@@H](CCC(N)=O)C(=O)N[C@@H](CCC(=O)O)C(=O)N[C@@H](CCCNC(=N)N)C(=O)N[C@@H](CCCCN)C(=O)N[C@@H](CCCNC(=N)N)C(=O)N[C@@H](CCCCN)C(=O)N[C@@H](CCC(=O)O)C(=O)N[C@@H](CCCNC(=N)N)C(=O)N[C@@H](CCC(=O)O)C(=O)N[C@@H](CCC(N)=O)C(=O)N[C@@H](C)C(=O)N[C@@H](CCC(=O)O)C(=O)N[C@@H](CCCCN)C(=O)N[C@@H](CC(N)=O)C(=O)N[C@@H](C)C(=O)N[C@@H](CCCNC(=N)N)C(=O)N[C@H](C(=O)N[C@@H](CC(C)C)C(=O)N[C@@H](CCC(=O)O)C(=O)N[C@@H](CCCNC(=N)N)C(=O)N[C@H](C(N)=O)C(C)C)[C@@H](C)CC)C(=O)O [compound 27] (H-IVLSLD[dV]PTKLK([γGlu-Palmitoyl])KKLLKQERKRKEREQAEKNARILERV-NH2; N-terminus assumed)	0.01 nM	> 100 nM	34.2%
CCCCCCCCCCCCCCCC(=O)N[C@@H](CCC(=O)NCCCC[C@H](NC(=O)[C@H](CC(C)C)NC(=O)[C@H](CCCCN)NC(=O)[C@@H](NC(=O)[C@@H]1CCCN1C(=O)[C@H](NC(=O)[C@H](CC(=O)O)NC(=O)[C@H](CC(C)C)NC(=O)[C@H](CO)NC(=O)[C@H](CC(C)C)NC(=O)[C@@H](NC(=O)[C@@H](N)[C@@H](C)CC)C(C)C)C(C)C)[C@@H](C)O)C(=O)N[C@@H](CCCCN)C(=O)N[C@@H](CCCCN)C(=O)N[C@@H](CC(C)C)C(=O)N[C@@H](CC(C)C)C(=O)N[C@@H](CCCCN)C(=O)N[C@@H](CCC(N)=O)C(=O)N[C@@H](CCC(=O)O)C(=O)N[C@@H](CCCNC(=N)N)C(=O)N[C@@H](CCCCN)C(=O)N[C@@H](CCCNC(=N)N)C(=O)N[C@@H](CCCCN)C(=O)N[C@@H](CCC(=O)O)C(=O)N[C@@H](CCCNC(=N)N)C(=O)N[C@@H](CCC(=O)O)C(=O)N[C@@H](CCCCN)C(=O)N[C@@H](C)C(=O)N[C@@H](CCC(=O)O)C(=O)N[C@@H](CCCCN)C(=O)N[C@@H](C)C(=O)N[C@@H](C)C(=O)N[C@@H](CCCNC(=N)N)C(=O)N[C@H](C(=O)N[C@@H](CC(C)C)C(=O)N[C@@H](CCC(=O)O)C(=O)N[C@@H](CCCNC(=N)N)C(=O)N[C@H](C(N)=O)C(C)C)[C@@H](C)CC)C(=O)O [compound 28] (H-IVLSLD[dV]PTKLK([γGlu-Palmitoyl])KKLLKQERKRKEREKAEKAARILERV-NH2; N-terminus assumed)	0.14 nM	> 100 nM	8.4%

Other lines, results leading:

EC50 (human CRF2α receptor)	EC50 (CRF1R receptor)	Emax (CRF1R receptor)	Structure (SMILES)
0.12 nM	> 100 nM	1.2%	CC[C@H](C)[C@H](N)C(=O)N[C@H](C(=O)N[C@@H](CC(C)C)C(=O)N[C@@H](CO)C(=O)N[C@@H](CC(C)C)C(=O)N[C@@H](CC(=O)O)C(=O)N[C@H](C(=O)N1CCC[C@H]1C(=O)N[C@H](C(=O)N[C@@H](CCCCN)C(=O)N[C@@H](CC(C)C)C(=O)N[C@@H](CCCCNC(=O)COCCOCCNC(=O)COCCOCCNC(=O)CC[C@H](NC(=O)CCCCCCCCCCCCCCCCC(=O)O)C(=O)O)C(=O)N[C@@H](CCC(N)=O)C(=O)N[C@H](C(=O)N[C@@H](CC(C)C)C(=O)N[C@@H](CC(C)C)C(=O)N[C@@H](CCCCN)C(=O)N[C@@H](CCC(N)=O)C(=O)N[C@@H](CCC(=O)O)C(=O)N[C@@H](CCCNC(=N)N)C(=O)N[C@@H](CCC(N)=O)C(=O)N[C@@H](CCCCN)C(=O)NC(C)(C)C(=O)N[C@@H](CCC(N)=O)C(=O)N[C@@H](CCCNC(=N)N)C(=O)N[C@@H](CCC(N)=O)C(=O)N[C@@H](CCCCN)C(=O)N[C@@H](C)C(=O)N[C@@H](CCC(=O)O)C(=O)N[C@@H](CCCCN)C(=O)N[C@@H](CC(N)=O)C(=O)N[C@@H](CCCCN)C(=O)N[C@@H](CCC(N)=O)C(=O)N[C@H](C(=O)N[C@@H](CC(C)C)C(=O)N[C@@H](C)C(=O)N[C@@H](CCC(N)=O)C(=O)N[C@H](C(N)=O)C(C)C)[C@@H](C)CC)[C@@H](C)CC)[C@@H](C)CC)C(C)C)C(C)C [compound 22] (H-IVLSLDVPIKLK([AEEA-AEEA-γGlu-C18 diacid])QILLKQERQK[Aib]QRQKAEKNKQILAQV-NH2)
0.09 nM	> 100 nM	0.1%	CCCCCCCCCCCCCCCC(=O)N[C@@H](CCC(=O)NCCCC[C@H](NC(=O)[C@H](CC(C)C)NC(=O)[C@H](CCCCN)NC(=O)[C@@H](NC(=O)[C@@H]1CCCN1C(=O)[C@H](NC(=O)[C@H](CC(=O)O)NC(=O)[C@H](CC(C)C)NC(=O)[C@H](CO)NC(=O)[C@H](CC(C)C)NC(=O)[C@@H](NC(=O)[C@@H](N)[C@@H](C)CC)C(C)C)C(C)C)[C@@H](C)O)C(=O)N[C@@H](CCCCN)C(=O)N[C@@H](CCCCN)C(=O)N[C@@H](CC(C)C)C(=O)N[C@@H](CC(C)C)C(=O)N[C@@H](CCCCN)C(=O)N[C@@H](CCC(N)=O)C(=O)N[C@@H](CCC(=O)O)C(=O)N[C@@H](CCCNC(=N)N)C(=O)N[C@@H](CCCCN)C(=O)N[C@@H](CCCNC(=N)N)C(=O)N[C@@H](CCCCN)C(=O)N[C@@H](CCC(=O)O)C(=O)N[C@@H](CCCNC(=N)N)C(=O)N[C@@H](CCC(=O)O)C(=O)N[C@@H](CCCCN)C(=O)N[C@@H](C)C(=O)N[C@@H](CCC(=O)O)C(=O)N[C@@H](CCCCN)C(=O)N[C@@H](CC(N)=O)C(=O)N[C@@H](C)C(=O)N[C@@H](CCCNC(=N)N)C(=O)N[C@H](C(=O)N[C@@H](CC(C)C)C(=O)N[C@@H](CCC(=O)O)C(=O)N[C@@H](CCCNC(=N)N)C(=O)N[C@H](C(N)=O)C(C)C)[C@@H](C)CC)C(=O)O [compound 25] (H-IVLSLD[dV]PTKLK([γGlu-Palmitoyl])KKLLKQERKRKEREKAEKNARILERV-NH2)
0.01 nM	> 100 nM	0.6%	CCCCCCCCCCCCCCCC(=O)N[C@@H](CCC(=O)NCCCC[C@H](NC(=O)[C@H](CC(C)C)NC(=O)[C@H](CCCCN)NC(=O)[C@@H](NC(=O)[C@@H]1CCCN1C(=O)[C@H](NC(=O)[C@H](CC(=O)O)NC(=O)[C@H](CC(C)C)NC(=O)[C@H](CO)NC(=O)[C@H](CC(C)C)NC(=O)[C@@H](NC(=O)[C@@H](N)[C@@H](C)CC)C(C)C)C(C)C)[C@@H](C)O)C(=O)N[C@@H](CCCCN)C(=O)N[C@@H](CCCCN)C(=O)N[C@@H](CC(C)C)C(=O)N[C@@H](CC(C)C)C(=O)N[C@@H](CCCCN)C(=O)N[C@@H](CCC(N)=O)C(=O)N[C@@H](CCC(=O)O)C(=O)N[C@@H](CCCNC(=N)N)C(=O)N[C@@H](CCCCN)C(=O)N[C@@H](CCCNC(=N)N)C(=O)N[C@@H](CCCCN)C(=O)N[C@@H](CCC(=O)O)C(=O)N[C@@H](CCCNC(=N)N)C(=O)N[C@@H](CCC(=O)O)C(=O)NC(C)(C)C(=O)N[C@@H](C)C(=O)N[C@@H](CCC(=O)O)C(=O)N[C@@H](CCCCN)C(=O)N[C@@H](CC(N)=O)C(=O)N[C@@H](C)C(=O)N[C@@H](CCCNC(=N)N)C(=O)N[C@H](C(=O)N[C@@H](CC(C)C)C(=O)N[C@@H](CCC(=O)O)C(=O)N[C@@H](CCCNC(=N)N)C(=O)N[C@H](C(N)=O)C(C)C)[C@@H](C)CC)C(=O)O [compound 26] (H-IVLSLD[dV]PTKLK([γGlu-Palmitoyl])KKLLKQERKRKERE[Aib]AEKNARILERV-NH2; N-terminus assumed)
